Source: patent US6878742B2, “Heterocyclic sulfonamide inhibitors of beta amyloid production” (Wyeth, priority 2000, dated 2005)
Values joined by “and” are separate entries in the source; they are usually repeats but may differ in a detail not shown here. Equal values may be shown once. Read-outs that look alike come from different tables or passages of the source.

Test system: amyloid precursor protein (APP) proteolysis
Assay: Repressor Release Assay (RRA)
Type: cell-based
Procedure: The beta amyloid inhibitory activity of many of the compounds of the present invention has been determined using the Repressor Release Assay (RRA). See, Table 23 below. A compound is considered active in RRA if it leads to at least a 1.5 fold increase in luciferase activity at 20 μM and is non-toxic.
The compounds generated as described in Examples 1 through 220 were tested in the RRA in accordance with published techniques [Shuey, D. J., Sheiffele, P., Jones, D., Cockett, M. I., and Quinet, E. M. (1999), “Repressor release: a useful tool for monitoring amyloid precursor protein (APP) proteolysis in mammalian cells”, Society for Neuroscience Abstracts, Vol. 25, 29th Annual Meeting of Society for Neuroscience, Miami Beach, Fla., Oct. 23-28, 1999]. Briefly, this assay is performed as follows.
CHO-K1 cells are cultured in whole DMEM media (DMEM—High Glucose with 10% fetal bovine serum, 1% Non-essential Amino Acids, and 1% Penicillin-Streptomycin) at 37° C. with 5% CO2. Two million cells are plated into 10-cm dishes 24 hrs prior to transfection.
Transient transfections are completed as recommended by Gibco BRL using their Lipofectamine Plus system. First, 6 μg of pRSVO-luc and 6 μg of APP-lacI construct DNA are added to 460 μL Opti-Mem transfection media and incubated with 30 μL Plus reagent for 15 minutes. Then, a lipid mixture of 40 μL Lipofectamine reagent and 460 μL Opti-Mem transfection media is incubated with the DNA-Plus reagent mixture for 15 minutes. During the DNA-lipid incubation, the CHO-K1 cells are washed once and covered in 5.0 mL DMEM media without Penicillin-Streptomycin. The DNA-lipid preparation is then layered onto these cells and incubated at 37° C. overnight.
One and one half million transfected cells per well (100 μL total volume) are plated into sterile, opaque Packard 96-well Cultur-Plates in clear DMEM whole media (DMEM—without phenol red) and incubated at 37° C. with 5% CO2 for 3-5 hours.
Compounds are diluted using two different protocols; one protocol is used for compounds supplied neat (weighed powder in vial) and the other protocol is used for compounds supplied in solution (20 mM in DMSO in 96-well plates). For both protocols, 25 mM Hepes and 25 mM Hepes/1% DMSO are prepared fresh to be used as diluent. The Hepes/DMSO is used as the diluent control on all experimental plates.
The following table depicts the steps for compound dilution (please note that the last step is the addition of compound to cells/media in tissue culture plate):
Because some compounds arrive in 96-well format at 20 mM, the following represents the protocol for their dilution (note that an average molecular weight of these compounds was used to calculate these dilutions and as above, the last step is the addition of compound to cells/media in tissue culture plate):
Once compounds are diluted, they are applied in duplicate on cells in tissue culture plates (prepared above). Cells are incubated with compound at 37° C. with 5% CO2 for an additional 36-48 hours.
Luciferase assays (LucLite reagent, Packard) are performed and are read on a Packard TopCount instrument. Media is removed from each 96-well plate and replaced with 100 μL PBS per well (with Mg^2+ and Ca^2+). An equal volume (100 μL) of the LucLite lysis/substrate buffer is added to each well and the plates are sealed and mixed in the dark on a rotary shaker for 15-30 minutes at room temperature. Luciferase readings are then taken on the TopCount instrument. Measurements are expressed as relative light units (RLU) and are calculated and analyzed in MS Excel as follows.
A compound is considered active in RRA if it leads to at least a 1.5 fold increase in luciferase activity at 20 μM and is non-toxic, as determined by loss of signal (≦0.75 fold increase). Fold increase is the amount of luciferase activity (measured in relative light units) over diluent control. SEM represents the standard error of the mean for fold increase (not shown).

[1] = Conc 10 μg/mL, luciferase activity over diluent control, read-out: APPI Fold Increase
[2] = Conc 20 μg/mL, luciferase activity over diluent control, read-out: APPI Fold Increase
[3] = Conc 1 μg/mL, luciferase activity over diluent control
[4] = Conc 3 μg/mL, luciferase activity over diluent control
[5] = Conc 10 μg/mL, luciferase activity over diluent control
[6] = Conc 20 μg/mL, luciferase activity over diluent control

Question: What does the source list for `CC[C@H](C)[C@H](NS(=O)(=O)c1ccc(Cl)s1)C(C)O` (stereo partly drawn) [Example 119, 5-Chloro-N-[(S,S)-1-(1-hydroxyethyl)-2-methylbutyl]thiophene-2-sulfonamide]?
Answer: fold induction at 0.3 µg/mL (Conc 0.3 μg/mL, luciferase activity over diluent control, read-out: APPI Fold Increase): 1.54; fold induction at 3 µg/mL (Conc 3 μg/mL, luciferase activity over diluent control, read-out: APPI Fold Increase): 2.49; fold induction at 10 µg/mL [1]: 4.1

Question: `CC[C@H](C)[C@@H](CO)NS(=O)(=O)c1sc(Cl)cc1Br` [Example 1, 3-Bromo-5-chloro-N-[(1S,2S)-1-(hydroxymethyl)-2-methylbutyl]thiophene-2-sulfonamide] was tested. Which fold induction at 10 µg/mL [1] did it give?
Answer: 1.57

Question: For `C=C(C)C(O)(C(=C)C)[C@@H](NS(=O)(=O)c1ccc(Br)s1)[C@@H](C)CC` [Example 174, 5-bromo-N-{(S)-2-hydroxy-2-isopropenyl-3-methyl-1-[(S)-1-methylpropyl]but-3-enyl}thiophene-2-sulfonamide], which fold induction at 10 µg/mL [1] is on record?
Answer: 1.75

Question: Which fold induction at 20 µg/mL [2] does the source give for `CCC(NCCO)[C@@H](CO)NS(=O)(=O)c1ccc(Cl)s1` (stereo partly drawn) [Example 82, 5-chloro-N-[(1S)-2-[(2-hydroxyethyl)amino]-1-(hydroxymethyl)butyl]-2-thiophenesulfonamide] here?
Answer: 2.2

Question: Which fold induction at 20 µg/mL [2] does the source give for `CCCCC[C@H](c1ccc(OC)cc1)[C@@H](CO)NS(=O)(=O)c1ccc(Br)s1` [Example 64, 5-bromo-N-[(1S,2R)-1-(hydroxymethyl)-2-(4-methoxyphenyl)heptyl]thiophene-2-sulfonamide] here?
Answer: 2.9

Question: With `CCCCC(CCCC)[C@@H](CO)NS(=O)(=O)c1ccc(Cl)s1` [Example 205, N-[(1S)-2-Butyl-1-(hydroxymethyl)hexyl]-5-chloro-2-thiophenesulfonamide] as the compound, how does the fold induction at 20 µg/mL [2] read?
Answer: 2.6

Question: With `C=CCCC(O)[C@@H](NS(=O)(=O)c1ccc(Cl)s1)[C@@H](C)CC` (stereo partly drawn) [Example 137, 5-chloro-N-{(S)-2-hydroxy-1-[(S)-1-methylpropyl]hex-5-enyl}thiophene-2-sulfonamide] as the compound, how does the fold induction at 10 µg/mL [1] read?
Answer: 1.96

Question: Which fold induction at 20 µg/mL [2] does the source give for `C[C@H](OCc1ccccc1)[C@@H](CO)NS(=O)(=O)c1ccc(Cl)s1` [Example 102, N-[(R,S)-2-(benzyloxy)-1-(hydroxymethyl)propyl]-5-chlorothiophene-2-sulfonamide] here?
Answer: 1.6

Question: For `O=S(=O)(NC1(CO)CCCCC1)c1ccc(Cl)s1` [Example 177, 5-Chloro-N-[1-(hydroxymethyl)cyclohexyl]thiophene-2-sulfonamide], which fold induction at 20 µg/mL [2] is on record?
Answer: 5.1

Question: Which results are given for `CC[C@H](C)[C@@H](CO)NS(=O)(=O)c1ccc(Br)s1` [Example 2]?
Answer: APPI Fold Increase [3]: 1.79 fold and 1.54 fold; APPI Fold Increase [4]: 2.96 fold and 2.34 fold; APPI Fold Increase [5]: 4.26 fold and 3.2 fold and 3.06 fold; APPI Fold Increase [6]: 4.5 fold and 5.5 fold and 6.3 fold

Question: For `CCCCC[C@H](CC)[C@@H](CO)NS(=O)(=O)c1ccc(Br)s1` [Example 62, 5-bromo-N-[(1S,2S)-2-ethyl-1-(hydroxymethyl)heptyl]thiophene-2-sulfonamide], which fold induction at 20 µg/mL [2] is on record?
Answer: 4.5

Question: For `CCC(CO)(CO)NS(=O)(=O)c1ccc(Cl)s1` [Example 93, N-[1,1-bis(hydroxymethyl)propyl]-5-chlorothiophene-2-sulfonamide], which fold induction at 20 µg/mL [2] is on record?
Answer: 2

Question: For `C[C@@H](c1ccccc1)[C@@H](CO)NS(=O)(=O)c1ccc(Cl)s1` [Example 46, 5-chloro-N-[(1S,2S)-1-(hydroxymethyl)-2-phenylpropyl]thiophene-2-sulfonamide], which fold induction at 20 µg/mL [2] is on record?
Answer: 5.8

Question: How did the fold induction at 20 µg/mL [2] turn out when `CCC[C@H](CC(C)C)[C@@H](CO)NS(=O)(=O)c1ccc(Br)s1` [Example 61, 5-bromo-N-[(1S,2R)-1-(hydroxymethyl)-4-methyl-2-propylpentyl]thiophene-2-sulfonamide] was run?
Answer: 5.7

Question: With `CC[C@H](C)[C@H](NS(=O)(=O)c1cccs1)C(O)CCC1OCCCO1` (stereo partly drawn) [Example 150, N-{(S)-4-(1,3-dioxan-2-yl)-2-hydroxy-1-[(S)-1-methylpropyl]butyl}thiophene-2-sulfonamide] as the compound, how does the fold induction at 10 µg/mL [1] read?
Answer: 1.6

Question: “5-bromo-N-{(S,R)-2-hydroxy-1-[(S)-1-methylpropyl]pent-4-enyl}thiophene-2-sulfonamide [Example 195]” was tested. Which “APPI Fold Increase” value [6] did it give?
Answer: 4.2 fold and 6.7 fold

Question: How did the fold induction at 20 µg/mL [2] turn out when `CCC[C@H](c1ccc(OC)cc1)[C@@H](CO)NS(=O)(=O)c1ccc(Cl)s1` [Example 36, 5-chloro-N-[(1S,2R)-1-(hydroxymethyl)-2-(4-methoxyphenyl)pentyl]thiophene-2-sulfonamide] was run?
Answer: 3.8

Question: For `CC[C@H](C)[C@H](NS(=O)(=O)c1cccs1)C(O)c1ccc(SC)cc1` (stereo partly drawn) [Example 153, N-((S,S)-1-{hydroxy[4-(methylthio)phenyl]methyl}-2-methylbutyl)thiophene-2-sulfonamide], which fold induction at 10 µg/mL [1] is on record?
Answer: 2.09

Question: For `CCC(CC)[C@@H](CO)NS(=O)(=O)c1ccc(F)s1` [Example 227, N-[(S)-2-Ethyl-1-(hydroxymethyl)butyl]-5-fluorothiophene-2-sulfonamide], which fold induction at 20 µg/mL [2] is on record?
Answer: 26.3

Question: For `CC[C@H](C)[C@@H](/C=N\O)NS(=O)(=O)c1ccc(Cl)s1` [Example 229], which fold induction at 20 µg/mL [2] is on record?
Answer: 6.3

Question: How did the fold induction at 20 µg/mL [2] turn out when `CCCC(CO)NS(=O)(=O)c1ccc(Cl)s1` (racemic) [Example 97, 5-chloro-N-[1-(hydroxymethyl)butyl]thiophene-2-sulfonamide] was run?
Answer: 1.8

Question: How did the fold induction at 10 µg/mL [1] turn out when `CCC(O)[C@@H](NS(=O)(=O)c1cccs1)[C@@H](C)CC` (stereo partly drawn) [Example 148, N-{(S)-2-hydroxy-1-[(S)-1-methylpropyl]butyl}thiophene-2-sulfonamide] was run?
Answer: 1.52

Question: How did the fold induction at 20 µg/mL [2] turn out when `CCCCCC[C@@H](C)[C@@H](CO)NS(=O)(=O)c1ccc(Br)s1` [Example 57, 5-bromo-N-[(1S,2R)-1-(hydroxymethyl)-2-methyloctyl]thiophene-2-sulfonamide] was run?
Answer: 6.4

Question: Which “APPI Fold Increase” value [3] does the source give for `CC[C@@H](C)[C@@H](CO)NS(=O)(=O)c1ccc(Br)s1` [Example 17] here?
Answer: 2.38 fold

Question: What about the “APPI Fold Increase” value [4] of the same compound?
Answer: 3.47 fold

Question: What about the “APPI Fold Increase” value [5] of the same compound?
Answer: 3.29 fold

Question: What about the “APPI Fold Increase” value [6] of the same compound?
Answer: 6.1 fold and 3.5 fold

Question: Which fold induction at 20 µg/mL [2] does the source give for `CCC(CC)[C@@H](C=O)NS(=O)(=O)c1ccc(Cl)s1` [Example 221A, 5-Chloro-N-[(S)-2-ethyl-1-formylbutyl]thiophene-2-sulfonamide] here?
Answer: 4.9

Question: For `CCC(C)C(NS(=O)(=O)c1ccc(Cl)s1)C(O)CC(C)C` (mixture of isomers) [Example 126], which “APPI Fold Increase” value [5] is on record?
Answer: 5.25 fold and 3.31 fold

Question: `CC1=CC(C)C(C(CO)NS(=O)(=O)c2ccc(Cl)s2)C(C)C1` (stereo not shown) [Example 22, 5-chloro-N-[2-hydroxy-1-(2,4,6-trimethylcyclohex-3-en-1-yl)ethyl]thiophene-2-sulfonamide] was tested. Which fold induction at 20 µg/mL (read-out: APPI Fold Increase) did it give?
Answer: 7

Question: How did the fold induction at 10 µg/mL [1] turn out when `CC[C@H](C)[C@H](NS(=O)(=O)c1ccc(Cl)s1)C(O)(CC)CC` [Example 166, 5-chloro-N-{(S)-2-ethyl-2-hydroxy-1-[(S)-1-methylpropyl]butyl}thiophene-2-sulfonamide] was run?
Answer: 1.78

Question: `O=S(=O)(N[C@H](CO)C1CCNCC1)c1ccc(Cl)s1` [Example 225, 5-Chloro-N-[(S)-2-hydroxy-1-piperidin-4-ylethyl]thiophene-2-sulfonamide] was tested. Which fold induction at 20 µg/mL [2] did it give?
Answer: 8

Question: How did the “APPI Fold Increase” value [4] turn out when `O=S(=O)(NC1(CO)CCCC1)c1ccc(Br)s1` [Example 109] was run?
Answer: 1.8 fold

Question: And the “APPI Fold Increase” value [5]?
Answer: 2 fold

Question: With `CCC(NCc1ccccc1)[C@@H](CO)NS(=O)(=O)c1ccc(Cl)s1` (stereo partly drawn) [Example 85, N-[(1S)-2-(benzylamino)-1-(hydroxymethyl)butyl]-5-chloro-2-thiophenesulfonamide] as the compound, how does the fold induction at 20 µg/mL [2] read?
Answer: 8.9
